# In patent publication US20230159583A1, “COMPOUND FOR TREATING GOUT, PREPARATION METHOD THEREFOR, AND USE THEREOF” (Huazhong Pharmaceutical Co., Ltd., priority 2020, published 2023):
# Read-outs that look alike come from different tables or passages of the source.
# Tests used:
# Format in all cases: in vivo
# [1] = test system: rat paw swelling induced by monosodium urate (MSU); experiment: rat paw swelling model induced by monosodium urate (MSU)
# Excerpt: Gout is a disease unique to human, and gouty arthritis is an inflammatory reaction caused by the deposition of monosodium urate (MSU) in local joint tissues. Since purine metabolism pathways in some mammals such as mice and rabbits are different from those in humans, it is impossible to construct a gouty arthritis model by the method of interfering with purine metabolism disorders, so the most direct method for causing gouty arthritis is to directly inject MSU into the joint cavity of the model animal. The model is only used for simulating local joint inflammation of gout, is suitable for observation of local arthritis symptoms, is a common method for screening anti-inflammatory effects of gout drugs at present, and has the advantages of stability, easy operation and the like. (Reference: Li Na, Hua Long, and Yuan Hui. Research progress of gout animal models [J]. Medical theory and practice, 2016(24).
# The anti-gout effect of the compound prepared in the above Example was detected by using a rat paw swelling model induced by monosodium urate (MSU), and the control sample was methylprednisolone.
# Experimental method: MSU was used as an inflammatory agent, injected subcutaneously into the hind paws of rats to cause paw swelling, and then the volume of the paws was measured, and the swelling rates and swelling inhibition rates of the treatment group and the control group were compared. On the day of the experiment, the volume of right hind paw (ml) of each rat was measured firstly, and then after the onset of inflammation, the volume of right hind paw was measured so that the difference of volume of paw before and after inflammation was swelling degree, and the swelling inhibition rate of paw (swelling inhibition rate %=(C−T)/C*100%); C=swelling rate of the control group %, and T=swelling rate of the treatment group) was calculated. This method is one of the commonly used methods for screening anti-inflammatory effects of gout drugs, and the model is stable and easy to operate.
# (2) One week before the subcutaneous injection of MSU into the feet and soles of the rats, the rats were given different doses of the test drugs, and the drugs were given by gavage once a day, for seven consecutive days. The circumference of the right hind paw was marked and measured before the last administration, and the average value of the two measurements was taken as the standard. 1 h after the last administration, animals in other groups were given 50 μL of 2% MSU in addition to the blank control group, and the paw circumference was measured 1 h after the onset of inflammation. […]
# ICR mice = settings: p.o.
# Description: The experiment was designed according to the “Technical Guideline for Acute Toxicity Test of Chemical Drugs” issued by the State Food and Drug Administration in March 2005. The doses administered were 4 g/kg, 4.91 g/kg, 6.14 g/kg, 7.68 g/kg, 9.6 g/kg, 12 g/kg, and 15 g/kg (the dose could be adjusted according to the actual test results), 12 ICR mice per dose group. If the administration volume is greater than 0.5 ml, it is better to perform the drug administration in two or more times (Note: according to the national standard GB 15193.3-2014, if multiple drug administrations are required, the time interval should be 4 h to 6 h each time, and the patient should be fasted on the day before drug administration).
# [2] = test system: carrageenan-induced mouse paw swelling; experiment: carrageenan-induced mouse paw swelling model
# Description: The anti-inflammatory effects of the compounds prepared in the above Examples were detected using a carrageenan-induced mouse paw swelling model, and the control sample was methylprednisolone:
# Carrageenan-induced mouse paw swelling model is a classical acute inflammation model commonly used for evaluating or screening anti-inflammatory effects of drugs. When carrageenan is injected into the paw of mice, a series of reactions similar to human acute inflammation such as local capillary dilatation, increased vascular permeability, exudation and edema can be caused, so the model can be widely used in the evaluation of new drugs.
# Reference for experimental method: Yang Huan, Cheng Xiao, Wang Yuehua, Du Guanhua. Effects of esculin on the swelling of toes and inflammation induced by carrageenan in mice [J]. Chinese Journal of New Drugs, 2016(25):2322.
# On the day of the experiment, the circumference of right hind paw (cm) of each mouse was measured firstly, and then, after the onset of inflammation, the circumference of right hind paw was measured so that the difference of the circumferences of the paws before and after inflammation was swelling degree, and the swelling inhibition rate of paw (swelling inhibition rate %=(C−T)/C*100%); C=swelling rate of the control group %, and T=swelling rate of the treatment group) was calculated.
# (2) Gavage administration was performed once a day for seven consecutive days. The circumference of the right hind paw was marked and measured before the last administration, and the average value of the two measurements was taken as the standard. 30 min after the last administration, 20 μL/mice of 0.5% carrageenan was injected into the right hind ankle of the mice to induce inflammation, and the circumference of paw was measured 180 min after the onset of inflammation. […]
smiles,measurement,setting,value
"CCCCC(=O)O[C@]1(/C(CO)=N/O)CC[C@H]2[C@@H]3C[C@H](C)C4=CC(=NO)C=C[C@]4(C)[C@H]3[C@@H](O)C[C@@]21C [Example 17, (6S,8S,9S,10R,11S,13S,14S,17R,E)-11-hydroxy-17-((E)-2-hydroxy-1-(hydroxyimino)ethyl)-3-(hydroxyimino)-6,10,13-trimethyl-6,7,8,9,10,11,12,13,14,15,16,17-dodecahydro-3H-cyclopentane[α]phenanthrene-17-yl valerate]",inhibition in vivo at 90 mg/kg,"[1]; Rattus norvegicus, po, 1 h, SD rats, 90 mg/kg by gavage once a day for seven days, 1 h after onset of inflammation, read-out: Swelling inhibition rate",96.4%
same,inhibition in vivo at 0.36 mg/kg,"[1]; Rattus norvegicus, po, 1 h, rat, MSU-induced paw swelling, dosage 0.36 mg/kg, read-out: Swelling inhibition rate",10.3%
same,inhibition in vivo at 1.8 mg/kg,"[1]; Rattus norvegicus, po, 1 h, rat, MSU-induced paw swelling, dosage 1.8 mg/kg, read-out: Swelling inhibition rate",56.1%
same,inhibition in vivo at 9 mg/kg,"[1]; Rattus norvegicus, po, 1 h, rat, MSU-induced paw swelling, dosage 9 mg/kg, read-out: Swelling inhibition rate",78.2%
same,inhibition in vivo at 90 mg/kg,"[1]; Rattus norvegicus, po, 1 h, rat, MSU-induced paw swelling, dosage 90 mg/kg, read-out: Swelling inhibition rate",97%
same,change in vivo at 90 mg/kg,"[1]; Rattus norvegicus, po, SD rats, 90 mg/kg by gavage once a day for seven days, 1 h after onset of inflammation, read-out: Swelling degree",11.9%
same,Swelling value,"[1]; SD rats, 90 mg/kg by gavage once a day for seven days, 1 h after onset of inflammation",0.14 mL
same,Mean volume of paw after administration,"[1]; SD rats, 90 mg/kg by gavage once a day for seven days, 1 h after onset of inflammation (50 μL 2% MSU)",1.32 mL
same,Mortality,ICR mice; 4 g/kg,0/12
same,Mortality,ICR mice; 4.91 g/kg,0/12
same,Mortality,ICR mice; 6.14 g/kg,0/12
same,Mortality,ICR mice; 7.68 g/kg,0/12
same,Mortality,ICR mice; 9.6 g/kg,0/12
same,Mortality,ICR mice; 12 g/kg,0/12
same,Mortality,ICR mice; 15 g/kg,0/12
same,Swelling value,"[2]; ICR mice, 130 mg/kg by gavage once a day for seven days, 180 min after onset of inflammation",0.01 cm
same,Circumference of the paw after administration,"[2]; ICR mice, 130 mg/kg by gavage once a day for seven days, 180 min after onset of inflammation (0.5% carrageenan)",1.43 cm
same,inhibition in vivo at 0.26 mg/kg,"[2]; Mus musculus, po, 3 h, mouse, carrageenan-induced paw swelling, dosage 0.26 mg/kg, read-out: Swelling inhibition rate",28.2%
same,inhibition in vivo at 13 mg/kg,"[2]; Mus musculus, po, 3 h, mouse, carrageenan-induced paw swelling, dosage 13 mg/kg, read-out: Swelling inhibition rate",60.3%
same,inhibition in vivo at 130 mg/kg,"[2]; Mus musculus, po, 3 h, mouse, carrageenan-induced paw swelling, dosage 130 mg/kg, read-out: Swelling inhibition rate",98.7%
same,change in vivo at 130 mg/kg,"[2]; Mus musculus, po, 3 h, ICR mice, 130 mg/kg by gavage once a day for seven days, 180 min after onset of inflammation, read-out: Swelling degree",0.7%
same,inhibition in vivo at 130 mg/kg,"[2]; Mus musculus, po, 3 h, ICR mice, 130 mg/kg by gavage once a day for seven days, 180 min after onset of inflammation, read-out: Swelling inhibition rate",96.4%
